The source of these data is US20260265189A1, “NOVEL COMPOUND, AND PHARMACEUTICAL COMPOSITION COMPRISING SAME AS ACTIVE INGREDIENT” (SAPIENSBIO INC., priority 2022, published 2026).

Structures are written as SMILES.

The first experiment deals with α-SMA expression in MRC5 cells. Nature of the experiment: inhibition of α-SMA expression in MRC5 cells, image screening method. It counts as cell-based. As to conditions: Homo sapiens; MRC5, compound 10 μM, TGF-β1 5 ng/mL, 72 hours, relative to TGF-β1 alone; read-out: Inhibitory activity (α-SMA expression inhibition). The protocol: The ability of the compounds according to the present invention to inhibit the expression of α-SMA, which is a biomarker for pulmonary fibrosis, was evaluated by an image screening method. MRC5 cells were treated with the compound (10 μM) or DMSO under the condition of TGF-31 (5 ng/mL). 72 hours later, the cells were fixed with a 4% formaldehyde solution, treated with a 0.1% Triton-x100 solution, and treated with a 1% BSA solution to mask non-specific binding caused by antibodies. Anti-α-SMA-FITC (Sigma Aldrich) and anti-GAPDH (Cell Signaling Technology) were used as primary antibodies, and anti-mouse-TRITC was used as a secondary antibody. Imaging and analysis of the results were performed using Cytation5_Gen5_Version 3.12.08 (Bio Tek). Relative to the α-SMA expression level when TGF-31 was treated alone, the α-SMA expression level when both the compound and TGF-31 were treated was calculated as the ability of α-SMA expression inhibition of the corresponding compound.
With `O=C(N1CCCCC1)N1CCN(c2ccccc2Cl)c2ccccc21` [Compound 66, (4-(2-chlorophenyl)-3,4-dihydroquinoxalin-1(2H)-yl)(piperidin-1-yl)methanone], the inhibition at 10 µM was 50 to 70%. Regarding `O=C(NCC1CC1)N1CCN(Cc2ccccn2)c2ccccc21` [Compound 102, N-(cyclopropylmethyl)-4-(pyridin-2-ylmethyl)-3,4-dihydroquinoxaline-1(2H)-carboxamide], the inhibition at 10 µM lay within 30 to 50%. As to `CS(=O)(=O)N[C@H]1CCN(C(=O)N2CCN(c3ccc(F)cc3)c3cc(F)ccc32)C1` [Compound 16, (S)-N-(1-(6-fluoro-4-(4-fluorophenyl)-1,2,3,4-tetrahydroquinoxaline-1-carbonyl)pyrrolidin-3-yl)methanesulfonamide], the inhibition at 10 µM lay within 10 to 30%. For the compound `CC(C)N1CCC(CNC(=O)N2CCN(c3ccc(F)cc3)c3cc(F)ccc32)CC1` [Compound 36, 6-fluoro-4-(4-fluorophenyl)-N-((1-isopropylpiperidin-4-yl)methyl)-3,4-dihydroquinoxaline-1(2H)-carboxamide], the inhibition at 10 µM fell in the range of 50 to 70%.

Regarding `COC1CCN(C(=O)N2CCN(c3ccc(F)cc3)c3cc(F)ccc32)C1` (centres unmarked) [Compound 40, (6-fluoro-4-(4-fluorophenyl)-3,4-dihydroquinoxalin-1(2H)-yl)(3-methoxypyrrolidin-1-yl)methanone], the inhibition at 10 µM fell in the range of 10 to 30%. Consider `O=C(N[C@@H]1CCNC1)N1CCN(c2ccccc2)c2cc(F)ccc21` [Compound 65, (R)-6-fluoro-4-phenyl-N-(pyrrolidin-3-yl)-3,4-dihydroquinoxaline-1(2H)-carboxamide], for which the inhibition at 10 µM lay in the range of 30 to 50%.

Regarding `CC(C)(C)CC(=O)N1CCN(C(=O)NC[C@@H]2CCNC2)c2ccccc21` [Compound 129, (R)-4-(3,3-dimethylbutanoyl)-N-(pyrrolidin-3-ylmethyl)-3,4-dihydroquinoxaline-1(2H)-carboxamide], the inhibition at 10 µM was 10 to 30%. On the same count and under the same terms, with `CN1CC[C@H](CNC(=O)N2CCN(Cc3ccccc3F)c3ccccc32)C1` [Compound 90, (R)-4-(2-fluorobenzyl)-N-((1-methylpyrrolidin-3-yl)methyl)-3,4-dihydroquinoxaline-1(2H)-carboxamide] the figure was 30 to 50%; with `CC(C)N1CC[C@H](CNC(=O)N2CCN(c3ccc(F)cc3)c3ccccc32)C1` [Compound 55, (R)-4-(4-fluorophenyl)-N-((1-isopropylpyrrolidin-3-yl)methyl)-3,4-dihydroquinoxaline-1(2H)-carboxamide], 30 to 50%; with `CC(C)N1CC[C@H](CNC(=O)N2CCN(c3ccc(F)cc3)c3cc(F)ccc32)C1` [Compound 19, (R)-6-fluoro-4-(4-fluorophenyl)-N-((1-isopropylpyrrolidin-3-yl)methyl)-3,4-dihydroquinoxaline-1(2H)-carboxamide], 50 to 70%. Same read-out and setting: the value for `O=C(N[C@H]1CCNC1)N1CCN(c2cnccn2)c2ccccc21` [Compound 80, (S)-4-(pyrazin-2-yl)-N-(pyrrolidin-3-yl)-3,4-dihydroquinoxaline-1(2H)-carboxamide] was 10 to 30%; that for `O=C(N1CCCCC1)N1CCN(C2CCCCC2)c2ccccc21` [Compound 109, (4-cyclohexyl-3,4-dihydroquinoxalin-1(2H)-yl)(piperidin-1-yl)methanone] was 30 to 50%. On to `CN[C@H]1CCN(C(=O)N2CCN(Cc3ccccc3)c3ccccc32)C1` [Compound 86, (S)-(4-benzyl-3,4-dihydroquinoxalin-1(2H)-yl)(3-(methylamino)pyrrolidin-1-yl)methanone], for which the inhibition at 10 µM was 10 to 30%. In the case of `CN1CCC(NC(=O)N2CCN(Cc3ccccc3F)c3ccccc32)CC1` [Compound 88, 4-(2-fluorobenzyl)-N-(1-methylpiperidin-4-yl)-3,4-dihydroquinoxaline-1(2H)-carboxamide], the inhibition at 10 µM lay in the range of 50 to 70%. On the same count and under the same terms, the value for `CN1CC[C@H](CNC(=O)N2CCN(c3ccc(F)cc3)c3ccccc32)C1` [Compound 54, (R)-4-(4-fluorophenyl)-N-((1-methylpyrrolidin-3-yl)methyl)-3,4-dihydroquinoxaline-1(2H)-carboxamide] was 30 to 50%; that for `CC(C)CN1CCC(CNC(=O)N2CCN(c3ccc(F)cc3)c3ccccc32)CC1` [Compound 64, 4-(4-fluorophenyl)-N-((1-isobutylpiperidin-4-yl)methyl)-3,4-dihydroquinoxaline-1(2H)-carboxamide] was not below 70%; that for `O=C(NC1CCNCC1)N1CCN(Cc2ccc(F)cc2)c2ccccc21` [Compound 93, 4-(4-fluorobenzyl)-N-(piperidin-4-yl)-3,4-dihydroquinoxaline-1(2H)-carboxamide] was 50 to 70%.

As to `CC(C)CN1CC[C@H](CNC(=O)N2CCN(c3ccc(F)cc3)c3cc(F)ccc32)C1` [Compound 20, (R)-6-fluoro-4-(4-fluorophenyl)-N-((1-isobutylpyrrolidin-3-yl)methyl)-3,4-dihydroquinoxaline-1(2H)-carboxamide], the inhibition at 10 µM is not below 70%.

As to `CC(C)N1CC[C@@H](CNC(=O)N2CCN(c3ccc(F)cc3)c3cc(F)ccc32)C1` [Compound 26, (S)-6-fluoro-4-(4-fluorophenyl)-N-((1-isopropylpyrrolidin-3-yl)methyl)-3,4-dihydroquinoxaline-1(2H)-carboxamide], the inhibition at 10 µM lay in the range of 50 to 70%.

On to `O=C(NCc1c[nH]cn1)N1CCN(c2ccc(F)cc2)c2cc(F)ccc21` [Compound 37, N-((1H-imidazol-4-)methyl)-6-fluoro-4-(4-fluorophenyl)-3,4-dihydroquinoxaline-1(2H)-carboxamide], for which the inhibition at 10 µM lay in the range of 30 to 50%.

As to `O=C(NC[C@H]1CCCN1)N1CCN(c2ccccn2)c2ccccc21` [Compound 72, (R)-4-(pyridin-2-yl)-N-(pyrrolidin-2-ylmethyl)-3,4-dihydroquinoxaline-1(2H)-carboxamide], the inhibition at 10 µM lay within 30 to 50%. Take `CS(=O)(=O)N1CC[C@@H](NC(=O)N2CCN(c3ccc(F)cc3)c3cc(F)ccc32)C1` [Compound 7, (R)-6-fluoro-4-(4-fluorophenyl)-N-(1-(methylsulfonyl)pyrrolidin-3-yl)-3,4-dihydroquinoxaline-1(2H)-carboxamide]: the inhibition at 10 µM is 10 to 30%. Same read-out and setting: with `CC(C)N[C@H]1CCN(C(=O)N2CCN(c3ccc(F)cc3)c3cc(F)ccc32)C1` [Compound 14, (S)-(6-fluoro-4-(4-fluorophenyl)-3,4-dihydroquinoxalin-1(2H)-yl)(3-(isopropylamino)pyrrolidin-1-yl)methanone] the figure was 30 to 50%; with `O=C(N[C@@H]1CCNC1)N1CCN(c2ccc(F)cc2)c2cc(F)ccc21` [Compound 1, (R)-6-fluoro-4-(4-fluorophenyl)-N-(pyrrolidin-3-yl)-3,4-dihydroquinoxaline-1(2H)-carboxamide], not below 70%; with `CN[C@H]1CCN(C(=O)N2CCN(c3ccc(F)cc3)c3cc(F)ccc32)C1` [Compound 12, (S)-(6-fluoro-4-(4-fluorophenyl)-3,4-dihydroquinoxalin-1(2H)-yl)(3-(methylamino)pyrrolidin-1-yl)methanone], 30 to 50%. `CN1CCC(NC(=O)N2CCN(c3ccc(F)cc3)c3cc(F)ccc32)CC1` [Compound 30, 6-fluoro-4-(4-fluorophenyl)-N-(1-methylpiperidin-4-yl)-3,4-dihydroquinoxaline-1(2H)-carboxamide]: the inhibition at 10 µM fell in the range of 50 to 70%. As to `CN1CC[C@H](NC(=O)N2CCN(c3ccc(F)cc3)c3cc(F)ccc32)C1` [Compound 9, (S)-6-fluoro-4-(4-fluorophenyl)-N-(1-methylpyrrolidin-3-yl)-3,4-dihydroquinoxaline-1(2H)-carboxamide], the inhibition at 10 µM fell in the range of 50 to 70%. Same read-out and setting: with `CC(C)N1CCC[C@@H]1CNC(=O)N1CCN(c2ccc(F)cc2)c2cc(F)ccc21` [Compound 23, (R)-6-fluoro-4-(4-fluorophenyl)-N-((1-isopropylpyrrolidin-2-yl)methyl)-3,4-dihydroquinoxaline-1(2H)-carboxamide] the figure was not below 70%; with `CC(C)N1CC(CNC(=O)N2CCN(c3ccc(F)cc3)c3cc(F)ccc32)C1` [Compound 46, 6-fluoro-4-(4-fluorophenyl)-N-((1-isopropylazetidin-3-yl)methyl)-3,4-dihydroquinoxaline-1(2H)-carboxamide], 30 to 50%; with `CC(C)CN1CC(NC(=O)N2CCN(c3ccc(F)cc3)c3cc(F)ccc32)C1` [Compound 43, 6-fluoro-4-(4-fluorophenyl)-N-(1-isobutylazetidin-3-yl)-3,4-dihydroquinoxaline-1(2H)-carboxamide], not below 70%. In the case of `O=C(N[C@@H]1CCNC1)N1CCN(Cc2ccc(F)cc2)c2ccccc21` [Compound 91, (R)-4-(4-fluorobenzyl)-N-(pyrrolidin-3-yl)-3,4-dihydroquinoxaline-1(2H)-carboxamide], the inhibition at 10 µM fell in the range of 50 to 70%.

Test system in the next experiment: not given
Test: not given
To be noted: clinical use as therapeutic drug for pulmonary fibrosis; cited from earlier work.
As to `Cc1ccc(=O)n(-c2ccccc2)c1` [Pirfenidone], the lung function improvement result is “about 10%”.
